These results are taken from US9133168B2, “Pyrimidine derivatives, preparation thereof, and pharmaceutical use thereof as akt(pkb) phosphorylation inhibitors” (SANOFI, priority 2010, dated 2015).

For orientation: IC50 means the concentration at which inhibition is half-maximal.

This assay relates to AKT protein phosphorylated on serine 473 (P-AKT-S473) in PC3 human prostate carcinoma cells. The assay is described as follows: pAKT expression in PC3 human prostate carcinoma cells, MSD Multi-spot Biomarker detection (Test A). The class given is cell-based. The note with it: 1 to 2 h incubation, P-AKT-S473, absolute IC50, mean of two independent experiments. Here is the method:
The inhibitory activity of the molecules on AKT phosphorylation is measured using the MSD Multi-spot Biomarker detection technique from Meso Scale Discovery also described below. […] The primary antibody specific for […]) is coated on to an electrode in each well of the 96-well plates of the MSD kit: after the addition of a protein lysate to each well, the signal is visualized by adding a secondary detection antibody labeled with an electrochemiluminescent compound. The procedure followed is the one described in the kit. […] On day 2, the cells are incubated in the presence or absence of the test products for 1 to 2 h at 37° C. in the presence of 5% CO2. The molecules, diluted in dimethyl sulfoxide (DMSO Sigma #D2650), are added from a 20-times concentrated stock solution, the final percentage of DMSO being 0.1%. The molecules are tested either at a single concentration of less than or equal to 10 μM, or at increasing concentrations in a range that can extend from less than 1 nM to 10 μM. After this incubation, the cells are lysed for the preparation of the proteins. […] At this stage, the plates containing the lysates can be frozen at -20° C. or at -80° C. The wells of the 96 well plates of the MSD kit are saturated for 1 h at ambient temperature with the blocking solution of the MSD kit. Four washes are carried out with 150 μl of Tris Wash Buffer of the MSD kit. The lysates previously prepared are transferred into the 96-well multi-spot plates of the MSD kit and incubated for 1 h at ambient temperature, with shaking. Four washes are carried out with 150 μl of Tris Wash Buffer of the MSD kit. 25 μl of the MSD sulfo-tag detection antibody solution are added to the wells and incubated for 1 h at ambient temperature, with shaking. Four washes are carried out with 150 μl of Tris Wash Buffer of the MSD kit. 150 μl of Read Buffer of the MSD kit are added to the wells and the plates are read immediately on the S12400 instrument from Meso Scale Discovery. The instrument measures a signal for each well. Wells without cells and containing the lysis buffer serve to determine the background noise that will be subtracted from all the measurements (min). The wells containing cells in the absence of product and in the presence of 0.1% DMSO are considered to be the 100% signal (max). The percentage inhibition is calculated for each concentration of product tested, according to the following formula: (1-((test-min)/(max-min)))×100. […] Two independent experiments make it possible to calculate the mean of the IC50 values.

`CC1Cc2c(OC(F)F)cccc2N1C(=O)Cc1nc(N2CCOCC2)cc(=O)[nH]1` (single isomer, unassigned; (+)) [Example 29d, (+)-2-{2-[4-(difluoromethoxy)-2-methyl-2,3-dihydro-1H-indol-1-yl]-2-oxoethyl}-6-(morpholin-4-yl)pyrimidin-4(3H)-one] registered an IC50 (PC3 cells) of 33 nM. For the compound `CC1Cc2c(F)cccc2N1C(=O)Cc1nc(N2CCOCC2)cc(=O)n1C` (single isomer, unassigned; (+)) [Example 30c, (+)-2-{2-[4-fluoro-2-methyl-2,3-dihydro-1H-indol-1-yl]-2-oxoethyl}-3-methyl-6-(morpholin-4-yl)pyrimidin-4(3H)-one], inhibition (PC3 cells) was half-maximal at 73 nM (IC50). In turn, `C[C@H]1Cc2ccccc2N1C(=O)Cc1nc(N2CCOC(CO)C2)cc(=O)[nH]1` (single isomer, unassigned; (+)) [Example 31b] displayed a 50% inhibitory concentration (IC50) (Homo sapiens, PC-3, PC3 cells) of 156 nM. In turn, `CC1Cc2c(Br)cccc2N1C(=O)Cc1nc(N2CCOCC2)cc(=O)n1C` (single isomer, unassigned; (+)) [Example 31c, (+)-2-{2-[4-bromo-2-methyl-2,3-dihydro-1H-indol-1-yl]-2-oxoethyl}-3-methyl-6-(morpholin-4-yl)pyrimidin-4(3H)-one] came in with a 50% inhibitory concentration (IC50) (PC3 cells) of 36 nM. Where the note is “PC3 cells”, `CC1Cc2c(OC(F)F)cccc2N1C(=O)Cc1nc(N2CCOCC2)cc(=O)n1C` (single isomer, unassigned; (+)) [Example 31d, (+)-2-{2-[4-(difluoromethoxy)-2-methyl-2,3-dihydro-1H-indol-1-yl]-2-oxoethyl}-3-methyl-6-(morpholin-4-yl)pyrimidin-4(3H)-one] had an IC50 of 167 nM. The same measure, in the same setting: to `CC1Cc2c(Cl)cccc2N1C(=O)Cc1nc(N2CCOCC2)cc(=O)n1C` (single isomer, unassigned; (+)) [Example 33c, (+)-2-{2-[4-chloro-2-methyl-2,3-dihydro-1H-indol-1-yl]-2-oxoethyl}-3-methyl-6-(morpholin-4-yl)pyrimidin-4(3H)-one] belongs 55 nM; to `O=C(Cc1nc(N2CCOCC2)cc(=O)[nH]1)N1c2ccccc2CC1C1CC1` (single isomer, unassigned; (+)) [Example 34d, (+)-2-[2-(2-cyclopropyl-2,3-dihydroindol-1-yl)-2-oxoethyl]-6-morpholin-4-yl-3H-pyrimidin-4-one], 48 nM; to `CC1Cc2c(cccc2C(F)(F)F)N1C(=O)Cc1nc(N2CCOCC2)cc(=O)[nH]1` (single isomer, unassigned; (+)) [Example 36d, (+)-2-{2-[2-methyl-4-(trifluoromethyl)-2,3-dihydro-1H-indol-1-yl]-2-oxoethyl}-6-(morpholin-4-yl)pyrimidin-4(3H)-one], 5 nM. `CC1Cc2c(ccc(F)c2Cl)N1C(=O)Cc1nc(N2CCOCC2)cc(=O)[nH]1` (single isomer, unassigned; (+)) [Example 37c, (+)-2-{2-[4-chloro-5-fluoro-2-methyl-2,3-dihydro-1H-indol-1-yl]-2-oxoethyl}-6-(morpholin-4-yl)pyrimidin-4(3H)-one] had an IC50 (PC3 cells) of 7 nM. In the case of `CCC1Cc2ccccc2N1C(=O)Cc1nc(N2CCOCC2)cc(=O)[nH]1` (single isomer, unassigned; (+)) [Example 42c, (+)-2-[2-(2-ethyl-2,3-dihydroindol-1-yl)-2-oxoethyl]-6-morpholin-4-yl-3H-pyrimidin-4-one], the midpoint of inhibition (PC3 cells), the IC50, lay at 380 nM. The same measure, in the same setting: under `CC(F)(C(=O)N1CCc2c(F)cccc21)c1nc(N2CCOCC2)cc(=O)[nH]1` (single isomer, unassigned; (+)) [Example 45c, (+)-2-[2-fluoro-1-(4-fluoro-2,3-dihydro-1H-indol-1-yl)-1-oxopropan-2-yl]-6-(morpholin-4-yl)pyrimidin-4(3H)-one] stands 260 nM; under `CC1Cc2c(Cl)cccc2N1C(=O)Cc1nc(N2CCOCC2)cc(=O)[nH]1` (single isomer, unassigned; (-)) [Example 3c, (−)-2-{2-[4-chloro-2-methyl-2,3-dihydro-1H-indol-1-yl]-2-oxoethyl}-6-(morpholin-4-yl)pyrimidin-4(3H)-one], 1 nM. Same read-out and setting: under `CC1CN(c2cc(=O)[nH]c(CC(=O)N3CCc4c(F)cccc43)n2)CCO1` (single isomer, unassigned; (-)) [Example 9b, (−)-2-[2-(4-fluoro-2,3-dihydroindol-1-yl)-2-oxoethyl]-6-(2-methylmorpholin-4-yl)-3H-pyrimidin-4-one] stands 156 nM. Still for that read-out and setting: under `CC1Cc2c(O)cccc2N1C(=O)Cc1nc(N2CCOCC2)cc(=O)[nH]1` (single isomer, unassigned; (-)) [Example 10c, (−)-2-{2-[4-hydroxy-2-methyl-2,3-dihydro-1H-indol-1-yl]-2-oxoethyl}-6-(morpholin-4-yl)pyrimidin-4(3H)-one] stands 22 nM. With `CC1CN(C(=O)Cc2nc(N3CCOCC3)cc(=O)[nH]2)c2cccc(O)c21` (single isomer, unassigned; (-)) [Example 12c, (−)-2-{2-[4-hydroxy-3-methyl-2,3-dihydro-1H-indol-1-yl]-2-oxoethyl}-6-(morpholin-4-yl)pyrimidin-4(3H)-one], the IC50 (Homo sapiens, PC-3, PC3 cells) was 57 nM. `CC1Cc2cc(F)ccc2N1C(=O)Cc1nc(N2CCOCC2)cc(=O)[nH]1` (single isomer, unassigned; (-)) [Example 14c, (−)-2-{2-[5-fluoro-2-methyl-2,3-dihydro-1H-indol-1-yl]-2-oxoethyl}-6-(morpholin-4-yl)pyrimidin-4(3H)-one]: it took 2 nM to reach half-maximal inhibition (PC3 cells) (IC50). As for `CC1Cc2cc(F)ccc2N1C(=O)Cc1nc(N2CCOCC2)cc(=O)n1C` (single isomer, unassigned; (-)) [Example 16c, (−)-2-{2-[5-fluoro-2-methyl-2,3-dihydro-1H-indol-1-yl]-2-oxoethyl}-3-methyl-6-(morpholin-4-yl)pyrimidin-4(3H)-one], the IC50 (PC3 cells) was found to be 13 nM. Compared with the last compound, the IC50 is about 6.5-fold higher. Same read-out and setting: under `CC1Cc2c(Br)cccc2N1C(=O)Cc1nc(N2CCOCC2)c(F)c(=O)[nH]1` (single isomer, unassigned; (-)) [Example 17a, (−)-2-{2-[4-bromo-2-methyl-2,3-dihydro-1H-indol-1-yl]-2-oxoethyl}-5-fluoro-6-(morpholin-4-yl)pyrimidin-4(3H)-one] stands 45 nM. For `CC1Cc2c(ccc(F)c2F)N1C(=O)Cc1nc(N2CCOCC2)cc(=O)[nH]1` (single isomer, unassigned; (-)) [Example 18c, (−)-2-{2-[4,5-difluoro-2-methyl-2,3-dihydro-1H-indol-1-yl]-2-oxoethyl}-6-(morpholin-4-yl)pyrimidin-4(3H)-one], under “PC3 cells”, 1 nM corresponded to half-maximal inhibition (IC50).

`CC1Cc2c(ccc(F)c2F)N1C(=O)Cc1nc(N2CCOCC2)cc(=O)n1C` (single isomer, unassigned; (-)) [Example 20c, (−)-2-{2-[4,5-difluoro-2-methyl-2,3-dihydro-1H-indol-1-yl]-2-oxoethyl}-3-methyl-6-(morpholin-4-yl)pyrimidin-4(3H)-one] displayed an IC50 (PC3 cells) of 13 nM. For the compound `CC1Cc2ccccc2N1C(=O)Cc1nc(N2CCOCC2)cc(=O)[nH]1` (single isomer, unassigned; (-)) [Example 22b, (−)-2-[2-(2-methyl-2,3-dihydroindol-1-yl)-2-oxoethyl]-6-morpholin(D8)-4-yl-3H-pyrimidin-4-one], the IC50 (PC3 cells) stood at 9 nM.
